Like-named read-outs stand apart in the source and are kept apart here.

Experiment [1] concerns the target GluN2B glutamate receptors (Homo sapiens (Human), UniProt Q05586+Q13224). Kind of experiment: Whole-cell patch clamp of mammalian cells (Ionworks Barracuda), positive allosteric modulation, GluN2B. The experiment is classed as cell-based. The note with it: for Emax: read-out: Avg Emax 2B (%). In short, it runs like this:
(§1)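 Perforated-patch whole-cell recording, holding −70 mV, −40 mV during application; Cs-based internal pH 7.2, external with 5 mM CaCl2 pH 7.4. Test article pre-applied alone 5 min, then co-applied with EC20 L-glutamate plus 30 μM glycine. EC50 from Hill fit of % activation over the EC20 current.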
On the technique in general: The patch-clamp technique gives a direct electrical read-out from membranes.

For experiment [2], the target named is GlunN1/GluN2A glutamate receptors (Homo sapiens (Human), UniProt Q05586+Q12879). Nature of the experiment: Whole-cell patch clamp of mammalian cells (Ionworks Barracuda), positive allosteric modulation, GluN1/GluN2A. The experiment is classed as cell-based. An outline of the steps:
as §1

Setting [3] is: % potentiation of current elicited with EC20 L-glutamate and 30 μM glycine.
Where [4] appears, read: HEK293 cells, % potentiation of current elicited with EC20 L-glutamate and 30 μM glycine, read-out: Avg Emax 2A (%).
[5] abbreviates: co-application with EC20 L-glutamate and 30 μM glycine, 8-point concentration-response, read-out: Avg EC50 2B.
Setting [6] is: HEK293 cells, co-application with EC20 L-glutamate and 30 μM glycine, 8-point concentration-response, read-out: Avg EC50 2A.
The mark [7] stands for this setting: HEK293, read-out: Avg Emax 2A (%).

Chain of GlunN1/GluN2A glutamate receptors (Q12879 23-1464, other chains not shown): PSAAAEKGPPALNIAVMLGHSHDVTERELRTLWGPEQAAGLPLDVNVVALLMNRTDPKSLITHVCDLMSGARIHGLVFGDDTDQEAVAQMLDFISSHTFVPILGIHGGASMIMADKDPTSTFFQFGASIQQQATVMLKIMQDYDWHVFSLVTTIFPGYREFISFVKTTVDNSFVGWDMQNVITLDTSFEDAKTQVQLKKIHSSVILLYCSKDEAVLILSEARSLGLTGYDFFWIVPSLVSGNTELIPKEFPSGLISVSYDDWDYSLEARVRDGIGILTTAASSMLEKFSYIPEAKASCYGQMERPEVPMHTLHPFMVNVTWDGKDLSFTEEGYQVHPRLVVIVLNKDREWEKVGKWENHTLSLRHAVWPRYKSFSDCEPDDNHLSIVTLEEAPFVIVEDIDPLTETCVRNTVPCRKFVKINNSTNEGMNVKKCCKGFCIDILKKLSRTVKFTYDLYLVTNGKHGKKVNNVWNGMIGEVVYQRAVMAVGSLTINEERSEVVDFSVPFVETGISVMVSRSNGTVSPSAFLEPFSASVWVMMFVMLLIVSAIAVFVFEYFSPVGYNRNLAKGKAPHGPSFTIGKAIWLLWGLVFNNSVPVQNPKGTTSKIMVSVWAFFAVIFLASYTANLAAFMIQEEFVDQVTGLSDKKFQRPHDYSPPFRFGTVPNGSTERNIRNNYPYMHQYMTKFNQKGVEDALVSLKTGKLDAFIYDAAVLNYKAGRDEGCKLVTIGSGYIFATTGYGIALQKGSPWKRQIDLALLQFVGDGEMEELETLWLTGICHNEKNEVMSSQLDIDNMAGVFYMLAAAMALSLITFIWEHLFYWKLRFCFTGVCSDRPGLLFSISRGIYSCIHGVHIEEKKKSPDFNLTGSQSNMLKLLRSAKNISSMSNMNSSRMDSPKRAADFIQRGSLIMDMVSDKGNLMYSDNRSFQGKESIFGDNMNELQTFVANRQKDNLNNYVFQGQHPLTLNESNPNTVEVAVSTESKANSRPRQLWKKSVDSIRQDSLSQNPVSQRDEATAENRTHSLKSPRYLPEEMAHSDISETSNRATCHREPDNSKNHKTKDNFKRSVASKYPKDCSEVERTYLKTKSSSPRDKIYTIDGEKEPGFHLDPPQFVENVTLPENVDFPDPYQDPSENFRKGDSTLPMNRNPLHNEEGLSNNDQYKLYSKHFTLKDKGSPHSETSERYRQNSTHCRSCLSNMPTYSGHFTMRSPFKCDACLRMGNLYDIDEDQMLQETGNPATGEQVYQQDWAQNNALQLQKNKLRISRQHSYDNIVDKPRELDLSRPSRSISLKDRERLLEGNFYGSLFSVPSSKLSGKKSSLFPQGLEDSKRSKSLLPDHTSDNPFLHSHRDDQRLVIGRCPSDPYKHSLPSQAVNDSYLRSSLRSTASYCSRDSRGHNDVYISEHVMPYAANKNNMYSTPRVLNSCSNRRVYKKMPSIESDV
Chain of GluN2B glutamate receptors (Q13224 27-1484, other chains not shown): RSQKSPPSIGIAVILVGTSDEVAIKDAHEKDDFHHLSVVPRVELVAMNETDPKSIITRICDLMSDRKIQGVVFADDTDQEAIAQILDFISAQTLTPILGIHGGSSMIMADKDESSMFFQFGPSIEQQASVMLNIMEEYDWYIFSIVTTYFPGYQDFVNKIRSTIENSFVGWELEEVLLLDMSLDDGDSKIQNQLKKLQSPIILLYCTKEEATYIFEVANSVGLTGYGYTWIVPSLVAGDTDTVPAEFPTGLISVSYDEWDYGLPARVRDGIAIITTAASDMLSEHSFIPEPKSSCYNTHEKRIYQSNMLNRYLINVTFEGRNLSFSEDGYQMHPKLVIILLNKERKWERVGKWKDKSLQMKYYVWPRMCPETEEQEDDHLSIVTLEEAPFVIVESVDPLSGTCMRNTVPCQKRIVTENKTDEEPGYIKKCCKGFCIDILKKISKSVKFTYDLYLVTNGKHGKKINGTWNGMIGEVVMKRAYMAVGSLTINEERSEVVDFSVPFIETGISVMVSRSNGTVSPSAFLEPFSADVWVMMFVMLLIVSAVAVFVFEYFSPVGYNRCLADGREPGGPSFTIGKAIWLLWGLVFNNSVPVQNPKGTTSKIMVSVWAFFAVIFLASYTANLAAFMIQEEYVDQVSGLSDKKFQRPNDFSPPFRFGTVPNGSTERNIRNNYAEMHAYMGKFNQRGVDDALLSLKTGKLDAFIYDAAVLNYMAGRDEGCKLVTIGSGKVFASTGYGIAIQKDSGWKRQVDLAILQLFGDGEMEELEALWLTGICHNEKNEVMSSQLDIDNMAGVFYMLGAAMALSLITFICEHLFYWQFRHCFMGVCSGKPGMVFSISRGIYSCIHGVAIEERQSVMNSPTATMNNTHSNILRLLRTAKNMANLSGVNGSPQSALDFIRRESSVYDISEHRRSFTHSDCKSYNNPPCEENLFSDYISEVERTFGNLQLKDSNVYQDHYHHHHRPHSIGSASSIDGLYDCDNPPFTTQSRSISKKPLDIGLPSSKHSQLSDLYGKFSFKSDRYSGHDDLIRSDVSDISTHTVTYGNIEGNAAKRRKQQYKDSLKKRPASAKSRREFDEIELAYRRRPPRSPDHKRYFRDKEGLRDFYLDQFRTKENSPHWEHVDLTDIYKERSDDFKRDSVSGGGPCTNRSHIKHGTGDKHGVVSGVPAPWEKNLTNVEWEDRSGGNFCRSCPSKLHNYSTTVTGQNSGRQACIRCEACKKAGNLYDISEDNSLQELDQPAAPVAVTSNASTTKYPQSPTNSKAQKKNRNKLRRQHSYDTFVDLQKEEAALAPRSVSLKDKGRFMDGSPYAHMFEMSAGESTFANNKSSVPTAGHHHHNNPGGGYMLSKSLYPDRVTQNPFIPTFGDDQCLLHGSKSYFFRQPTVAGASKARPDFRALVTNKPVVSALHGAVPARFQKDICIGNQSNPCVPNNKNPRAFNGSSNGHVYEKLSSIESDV

As a reminder, the EC50 is the concentration giving half of the maximal effect. For orientation: Emax means the size of the effect at its maximum, as opposed to the concentration needed. With `COC[C@H]1CC[C@@](O)(CC[C@@H](C)[C@H]2CC[C@H]3[C@@H]4CC[C@H]5C[C@](O)(C(F)(F)F)CC[C@]5(C)[C@H]4CC[C@]23C)CC1` [Compound 4656], the EC50 in experiment [1] amounted to 2160 nM; in experiment [2] it was 1600 nM. Besides, the figures for the maximal response (Emax) in experiment [1] (setting [3]) and in experiment [2] (setting [4]) were 122% and 134%, respectively.
The corresponding values for `CC[C@]1(O)CC[C@H]2C(=CC[C@@H]3[C@@H]2CC[C@]2(C)[C@@H]([C@H](C)CCC4(O)CCC(F)(F)CC4)CC[C@@H]32)C1` [Compound 8708] are 553 nM, 697 nM, 243% and 117%.
`CC[C@]1(O)CC[C@H]2C(=CC[C@@H]3[C@@H]2CC[C@]2(C)[C@@H]([C@H](C)CCC[C@@H](O)C(C)C)CC[C@@H]32)C1` [Compound 10114]: the maximal response (Emax) in experiment [1] (setting [3]) was determined as 179%; in experiment [2] (setting [4]), 146%.
For the compound `CC[C@]1(O)CC[C@H]2C(=CC[C@@H]3[C@@H]2CC[C@]2(C)[C@@H]([C@H](C)CCCC4(O)CCC(F)(F)CC4)CC[C@@H]32)C1` [Compound 9810], the Emax in experiment [1] (setting [3]) is 91.6%; in experiment [2] (setting [4]), 87.1%. The EC50 is 151 nM in experiment [1] (setting [5]) and 124 nM in experiment [2] (setting [6]).
The matching figures for `CC[C@]1(O)CC[C@H]2C(=CC[C@@H]3[C@@H]2CC[C@]2(C)[C@@H]([C@H](C)CCC[C@H](O)C(C)C)CC[C@@H]32)C1` [Compound 10115]: 226%, 192%, 458 nM and 556 nM.
In the case of `C[C@H](CCC(C)(C)O)[C@H]1CC[C@H]2[C@@H]3CC=C4C[C@](O)(C(F)(F)F)CC[C@]4(C)[C@H]3CC[C@]12C` [Compound 1839], the Emax in experiment [1] (setting [3]) was 568%; in experiment [2] (setting [4]), 493%. Besides, the EC50 in experiment [2] (setting [6]) turned out to be 295 nM.
Turning to `CC[C@]1(O)CC[C@H]2[C@@H](CC[C@@H]3[C@@H]2CC[C@]2(C)[C@@H]([C@H](C)CCCC4(O)CCC(F)(F)CC4)CC[C@@H]32)C1` [Compound 9813], the results for the Emax in experiment [1] (setting [3]) and in experiment [2] (setting [4]) were 99.9% and 68.7%, respectively. The EC50 in experiment [1] (setting [5]) was found to be 268 nM; in experiment [2] (setting [6]) it was 469 nM.
With `CC[C@]1(O)CC[C@@]2(C)C(=CC[C@H]3[C@@H]4CC[C@H]([C@H](C)CC[C@@H](O)c5cccnc5)[C@@]4(C)CC[C@@H]32)C1` [Compound 6459], the EC50 was determined as 909 nM in experiment [1] and 1330 nM in experiment [2]. Besides, the maximum response (Emax) stood at 184% in experiment [1] (setting [3]) and 156% in experiment [2] (setting [4]).
As for `CC[C@]1(O)CC[C@H]2C(=CC[C@@H]3[C@@H]2CC[C@]2(C)[C@@H]([C@H](C)CC[C@H](O)C(C)(C)C)CC[C@@H]32)C1` [Compound 8378], the concentration giving a half-maximal response (EC50) was found to be 208 nM in experiment [1] and 124 nM in experiment [2]. Also, the values for the maximum response (Emax) in experiment [1] and in experiment [2] (setting [7]) were 259% and 195%, respectively.
On to `CC[C@]1(O)CC[C@@]2(C)[C@@H](CC[C@@H]3[C@@H]2CC[C@]2(C)[C@@H]([C@H](C)CC[C@H](O)c4ccccc4)CC[C@@H]32)C1` [Compound 6572], for which the results for the concentration giving a half-maximal response (EC50) in experiment [1] and in experiment [2] were 1340 nM and 378 nM, respectively. The Emax in experiment [1] (setting [3]) worked out at 251%; in experiment [2] (setting [4]), 129%.
On to `CC[C@]1(O)CC[C@@]2(C)C(=CC[C@H]3[C@@H]4CC[C@H]([C@H](C)CC[C@@H](O)c5ccccc5C#N)[C@@]4(C)CC[C@@H]32)C1` [Compound 7399], for which the EC50 was found to be 1580 nM in experiment [1] and 696 nM in experiment [2]. In addition, the maximal response (Emax) in experiment [1] (setting [3]) worked out at 180%; in experiment [2] (setting [4]) it was 150%.
On to `CC(C)[C@H](O)CC[C@@H](C)[C@H]1CC[C@H]2[C@@H]3CC[C@H]4C[C@@](C)(O)CC[C@@H]4[C@H]3CC[C@]12C` [Compound 1B75], for which the maximal response (Emax) in experiment [1] (setting [3]) stood at 233%; in experiment [2] (setting [4]), 279%.
In the case of `CC(C)[C@H](O)CCC[C@@H](C)[C@H]1CC[C@H]2[C@@H]3CC[C@H]4C[C@](O)(C(F)(F)F)CC[C@]4(C)[C@H]3CC[C@]12C` [Compound 11828], the figures for the EC50 in experiment [1] and in experiment [2] were 76.9 nM and 147 nM, respectively. Besides, the Emax in experiment [1] was found to be 114%; in experiment [2] (setting [7]), 142%.
Take `C[C@H](CCC1(O)CCC(C)(C)CC1)[C@H]1CC[C@H]2[C@@H]3CC[C@@H]4C[C@](O)(C(F)(F)F)CC[C@]4(C)[C@H]3C(=O)C[C@]12C` [Compound 5294]: the Emax was 13.9% in experiment [1] (setting [3]) and 32.4% in experiment [2] (setting [4]).
For the compound `C[C@H](CC[C@](C)(O)c1ccccc1)[C@H]1CC[C@H]2[C@@H]3CC=C4C[C@@](C)(O)CC[C@]4(C)[C@H]3CC[C@]12C` [Compound 7468], the values for the Emax in experiment [1] and in experiment [2] (setting [7]) were 317% and 273%, respectively.
The matching figures for `CC[C@H](O)CCC[C@@H](C)[C@H]1CC[C@H]2[C@@H]3CC=C4C[C@](O)(CC)CC[C@@H]4[C@H]3CC[C@]12C` [Compound 10949]: 147% and 97.4%.
Turning to `CC[C@]1(O)CC[C@H]2C(=CC[C@@H]3[C@@H]2CC[C@]2(C)[C@@H]([C@H](C)CCC[C@H](O)C(C)(C)C)CC[C@@H]32)C1` [Compound 10043], the values for the EC50 in experiment [1] and in experiment [2] were 1070 nM and 897 nM, respectively. Further, the Emax was found to be 211% in experiment [1] (setting [3]) and 146% in experiment [2] (setting [4]).
On to `CC[C@]1(O)CC[C@H]2C(=CC[C@@H]3[C@@H]2CC[C@]2(C)[C@@H]([C@H](C)CCC[C@H](O)C(F)(F)F)CC[C@@H]32)C1` [Compound 9567], for which the maximal response (Emax) in experiment [1] (setting [3]) came out at 124%; in experiment [2] (setting [4]), 104%. The EC50 in experiment [1] (setting [5]) is 378 nM; in experiment [2] (setting [6]) it was 328 nM.
Consider `CC[C@]1(O)CC[C@H]2C(=CC[C@@H]3[C@@H]2CC[C@]2(C)[C@@H]([C@H](C)CCC(C)(C)O)CC[C@@H]32)C1` [Compound 780], for which the Emax in experiment [1] (setting [3]) is 170%; in experiment [2] (setting [4]), 132%. The EC50 in experiment [1] (setting [5]) is 263 nM; in experiment [2] (setting [6]), 341 nM.
The matching figures for `C[C@H](CC[C@@H](C)O)[C@H]1CC[C@H]2[C@@H]3CC=C4C[C@](O)(C(F)(F)F)CC[C@]4(C)[C@H]3CC[C@]12C` [Compound 3266]: 135%, 82.6%, 377 nM and 147 nM.
For `CC[C@]1(O)CC[C@H]2C(=CC[C@@H]3[C@@H]2CC[C@]2(C)[C@@H]([C@H](C)CC[C@@H](O)C(C)C)CC[C@@H]32)C1` [Compound 8463], the EC50 was 85.1 nM in experiment [1] and 102 nM in experiment [2].
With `CC[C@]1(O)CC[C@H]2[C@@H](CC[C@@H]3[C@@H]2CC[C@]2(C)[C@@H]([C@H](C)CCC(C)(C)O)CC[C@@H]32)C1` [Compound 679], the Emax is 172% in experiment [1] (setting [3]) and 105% in experiment [2] (setting [4]). Also, the EC50 in experiment [1] (setting [5]) was 280 nM; in experiment [2] (setting [6]) it was 5110 nM.
For the compound `C[C@H](CC[C@@]1(O)CCOC1)[C@H]1CC[C@H]2[C@@H]3CC=C4C[C@](O)(C(F)(F)F)CC[C@]4(C)[C@H]3CC[C@]12C` [Compound 3495], the Emax in experiment [1] was 146%; in experiment [2] (setting [7]), 107%.
With `CC[C@]1(O)CC[C@H]2C(=CC[C@@H]3[C@@H]2CC[C@]2(C)[C@@H]([C@H](C)CC[C@]4(O)CCOC4)CC[C@@H]32)C1` [Compound 8603], the half-maximal effective concentration (EC50) in experiment [1] turned out to be 75.1 nM; in experiment [2], 135 nM.
As for `CC[C@]1(O)CC[C@@]2(C)C(=CC[C@H]3[C@@H]4CC[C@H]([C@H](C)CCC(O)c5ccccc5)[C@@]4(C)CC[C@@H]32)C1` (some centres unmarked) [Compound 761], the EC50 in experiment [1] was determined as 249 nM; in experiment [2], 476 nM. The results for the Emax in experiment [1] (setting [3]) and in experiment [2] (setting [4]) were 197% and 302%, respectively.
For `CC[C@]1(O)CC[C@H]2C(=CC[C@@H]3[C@@H]2CC[C@]2(C)[C@@H]([C@H](C)CCCC4(O)CCOCC4)CC[C@@H]32)C1` [Compound 10216], the maximal response (Emax) in experiment [1] (setting [3]) came to 121%; in experiment [2] (setting [4]), 79.3%. For the same compound, the EC50 in experiment [1] (setting [5]) came to 446 nM; in experiment [2] (setting [6]), 1200 nM.
Consider `C[C@H](CCC1(O)CCC(F)(F)CC1)[C@H]1CC[C@H]2[C@@H]3CC=C4C[C@](O)(C(F)(F)F)CC[C@]4(C)[C@H]3CC[C@]12C` [Compound 2392], for which the figures for the EC50 in experiment [1] and in experiment [2] were 47.5 nM and 104 nM, respectively.
Regarding `CC(C)C(O)CC[C@@H](C)[C@H]1CC[C@H]2[C@@H]3CC[C@H]4C[C@](O)(C(F)(F)F)CC[C@]4(C)[C@H]3CC[C@]12C` (some centres unmarked) [Compound 2], the concentration for a half-maximal effect (EC50) in experiment [1] worked out at 147 nM. Further, the Emax in experiment [1] (setting [3]) worked out at 605%; in experiment [2] (setting [4]) it was 709%.
Consider `C[C@H](CCCC(C)(C)O)[C@H]1CC[C@H]2[C@@H]3CC[C@H]4C[C@](O)(C(F)(F)F)CC[C@]4(C)[C@H]3CC[C@]12C` [Compound 5116], for which the Emax in experiment [1] (setting [3]) was found to be 214%; in experiment [2] (setting [4]), 185%. Moreover, the results for the half-maximal effective concentration (EC50) in experiment [1] (setting [5]) and in experiment [2] (setting [6]) were 130 nM and 102 nM, respectively.
For `C[C@H](CCC1(O)CCCCCC1)[C@H]1CC[C@H]2[C@@H]3CC[C@H]4C[C@](O)(C(F)(F)F)CC[C@]4(C)[C@H]3CC[C@]12C` [Compound 3983], the EC50 in experiment [1] was 248 nM; in experiment [2], 88.1 nM.

The values are drawn from patent US11149054B2, “Oxysterols and methods of use thereof” (Sage Therapeutics, Inc., priority 2016, dated 2021).
